Measurements published in ChEMBL document CHEMBL1126331, “Nor-mefloquine: Stereospecific synthesis and biological properties” (1992).

Tests used:
Mus musculus = test: Compound was evaluated in vivo against Plasmodium berghei in mice (Mus musculus) after oral administration; format: functional
Rattus norvegicus = test: Percent decrease in blood pressure in conscious hypertensive rats, at a dose of 100 mg; format: functional

Cl.O[C@@H](c1cc(C(F)(F)F)nc2c(C(F)(F)F)cccc12)[C@H]1CCCCN1 [MEFLOQUINE HYDROCHLORIDE]
ED50 (Mus musculus): 1.8 mg/kg

Cl.O[C@H](c1cc(C(F)(F)F)nc2c(C(F)(F)F)cccc12)[C@@H]1CCCN1 (single isomer, unassigned)
ED50 (Mus musculus): 1.8 mg/kg | Decrease (Rattus norvegicus): 15%
